Experimental data reported in PMC7918738, “Microtubule Destabilizing Sulfonamides as an Alternative to Taxane-Based Chemotherapy” (International Journal of Molecular Sciences, 2021).

How the values were obtained:
[1] = system: SKOV3 ovarian carcinoma cells; design: method as in PMID 29291446; conditions: read-out: Antiproliferative IC50 SKOV3; cited from earlier work
[2] = system: microtubule network of MCF7, SKOV3, and HeLa cells; assay: Immunofluorescence confocal microscopy of the microtubule network; type: cell-based, human; conditions: 72 h, 38 600 nM, 45 400 nM
Experimental: The effect of MDS 38 and 45 on the tubulin cytoskeleton was analyzed in MCF7, SKOV3, and HeLa cells after 72-h treatments. The microtubule network was visualized by confocal microscopy staining α-tubulin in green, and cell nuclei were stained in blue with DAPI (4’,6-diamidino-2-phenylindole) (Figure 4).
MCF7, SKOV-3, and HeLa cells were grown on glass coverslips coated with poly-L-lysine (12 mm diameter). To reach appropriate cell confluence, coverslips were manipulated in 6-well plates (3 coverslips/well) seeding 3 mL/well of cells in the exponential growth phase at 2 × 10^4 cells/mL. After 24 h incubation, cells were treated with selected compounds and incubated for 72 h. Cells were washed with PBS, fixed with 4% formaldehyde in PBS for 10 min, permeabilized with 0.5% Triton X-100 (Boehringer Mannheim, Ingelheim am Rhein, Germany) in PBS for 10 min and blocked with 10% BSA in PBS for 30 min. Microtubule detection was performed by incubation with anti-α-tubulin mouse monoclonal antibody (1:200 in 3% BSA/PBS) (Sigma-Aldrich) for 1.5 h. After PBS washing, coverslips were incubated with fluorescent secondary antibody Alexa Fluor 488 goat anti-mouse IgG (1:400 in 1% BSA/PBS) (Molecular Probes, Invitrogen, Thermo Fischer Scientific) for 1 h in darkness. […] Cells were analyzed by confocal microscopy using a LEICA SP5 microscope DMI-6000V model coupled to a LEICA LAS AF software computer.

Row | Structure (SMILES) | IC50 [1] | Effect on the microtubule network (α-tubulin immunofluorescence) [2]
1 | COc1ccc(/C=C\c2cc(OC)c(OC)c(OC)c2)cc1O [Combretastatin A-4, reference compound] | 380 nM | –
2 | CNc1ccc(S(=O)(=O)N(C)c2cc(OC)c(OC)c(OC)c2)cc1 [Compound 38] | – | disrupted the microtubule system
3 | COc1ccc(S(=O)(=O)N(Cc2ccccc2)c2cc(OC)c(OC)c(OC)c2)cc1N [Compound 45] | – | disrupted the microtubule system
